pIC50: −log10 of the molar value.
Tested on: 252836-082-R-J2-PDC tumor spheroids, viability
Experiment: Anticancer human tumor 252836-082-R-J2-PDC patient-derived head and neck squamous cell carcinoma cell line growth inhibition [PI3K]
Details: spheroids with HUVEC and MSC; for pIC50: curve of first compound; for viability, T/C: stronger effect = lower value
How it was run: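 Stroma-containing spheroids: tumor line, pooled-donor HUVEC, hMSC. Treatments: targeted agents with PI3K inhibitors. Dosing: clinically relevant, half-log spacing, 10 microM ceiling without known Cmax. Read-out: cell viability.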

[1] = second compound 0.00316 µM, first compound 0.0316 µM
[2] = second compound 0.00316 µM, first compound 0.1 µM
[3] = second compound 0.01 µM, first compound 0.0316 µM
[4] = second compound 0.01 µM, first compound 0.1 µM
[5] = second compound 0.0316 µM, first compound 0.0316 µM
[6] = second compound 0.0316 µM, first compound 0.1 µM
[7] = second compound 0.1 µM, first compound 0.0316 µM
[8] = second compound 0.1 µM, first compound 0.1 µM
[9] = second compound 0.316 µM, first compound 0.0316 µM
[10] = second compound 0.316 µM, first compound 0.1 µM
[11] = second compound 1 µM, first compound 0.0316 µM
[12] = second compound 1 µM, first compound 0.1 µM
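Note: spheroids exposed to agents for seven days before readout.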
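Throughout, for viability, T/C: percent of vehicle DMSO control viability so 100% = untreated growth.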

## Cn1ncc(Cl)c1-c1cc(C(=O)NC(CN)Cc2cccc(F)c2)sc1Cl (centres undefined) + COc1c(OCCCN2CCOCC2)ccc2c3n(c(=NC(=O)c4cnc(N)nc4)nc12)CCN3
Second compound 0.00316 µM
  pIC50: 6.11
Second compound 0.01 µM
  pIC50: 6.38
Second compound 0.0316 µM
  pIC50: 6.42
Second compound 0.1 µM
  pIC50: > 7.50
Second compound 0.316 µM
  pIC50: > 7.50
Second compound 1 µM
  pIC50: > 7.50
[1]
  viability, T/C: 88.6%
[2]
  viability, T/C: 79.1%
Second compound 0.00316 µM, first compound 0.316 µM
  viability, T/C: 60.2%
Second compound 0.00316 µM, first compound 1 µM
  viability, T/C: 45.7%
Second compound 0.00316 µM, first compound 3.16 µM
  viability, T/C: 32.3%
Second compound 0.00316 µM, first compound 10 µM
  viability, T/C: 11.2%
[3]
  viability, T/C: 71.8%
[4]
  viability, T/C: 67.8%
Second compound 0.01 µM, first compound 0.316 µM
  viability, T/C: 50.6%
Second compound 0.01 µM, first compound 1 µM
  viability, T/C: 40.1%
Second compound 0.01 µM, first compound 3.16 µM
  viability, T/C: 29%
Second compound 0.01 µM, first compound 10 µM
  viability, T/C: 18.4%
[5]
  viability, T/C: 59.1%
[6]
  viability, T/C: 68.6%
Second compound 0.0316 µM, first compound 0.316 µM
  viability, T/C: 50%
Second compound 0.0316 µM, first compound 1 µM
  viability, T/C: 34.5%
Second compound 0.0316 µM, first compound 3.16 µM
  viability, T/C: 23.1%
Second compound 0.0316 µM, first compound 10 µM
  viability, T/C: 11.7%
[7]
  viability, T/C: 40.8%
[8]
  viability, T/C: 36.4%
Second compound 0.1 µM, first compound 0.316 µM
  viability, T/C: 37%
Second compound 0.1 µM, first compound 1 µM
  viability, T/C: 26.4%
Second compound 0.1 µM, first compound 3.16 µM
  viability, T/C: 17.2%
Second compound 0.1 µM, first compound 10 µM
  viability, T/C: 9.98%
[9]
  viability, T/C: 21.1%
[10]
  viability, T/C: 13.9%
Second compound 0.316 µM, first compound 0.316 µM
  viability, T/C: 14.8%
Second compound 0.316 µM, first compound 1 µM
  viability, T/C: 14.2%
Second compound 0.316 µM, first compound 3.16 µM
  viability, T/C: 13%
Second compound 0.316 µM, first compound 10 µM
  viability, T/C: 7.08%
[11]
  viability, T/C: 4.42%
[12]
  viability, T/C: 4.98%
Second compound 1 µM, first compound 0.316 µM
  viability, T/C: 4.84%
Second compound 1 µM, first compound 1 µM
  viability, T/C: 6.71%
Second compound 1 µM, first compound 3.16 µM
  viability, T/C: 4.88%
Second compound 1 µM, first compound 10 µM
  viability, T/C: 1.6%

## Cn1ncnc1[C@H]1c2n[nH]c(=O)c3cc(F)cc(c23)N[C@@H]1c1ccc(F)cc1 + COc1c(OCCCN2CCOCC2)ccc2c3n(c(=NC(=O)c4cnc(N)nc4)nc12)CCN3
Second compound 0.00316 µM
  pIC50: 7.04
Second compound 0.01 µM
  pIC50: 7.36
Second compound 0.0316 µM
  pIC50: 7.89
Second compound 0.1 µM
  pIC50: > 9.50
Second compound 0.316 µM
  pIC50: > 9.50
Second compound 1 µM
  pIC50: > 9.50
Second compound 0.00316 µM, first compound 0.000316 µM
  viability, T/C: 84.3%
Second compound 0.00316 µM, first compound 0.001 µM
  viability, T/C: 88.2%
Second compound 0.00316 µM, first compound 0.00316 µM
  viability, T/C: 86.4%
Second compound 0.00316 µM, first compound 0.01 µM
  viability, T/C: 72.1%
[1]
  viability, T/C: 59.7%
[2]
  viability, T/C: 48.6%
Second compound 0.01 µM, first compound 0.000316 µM
  viability, T/C: 80.1%
Second compound 0.01 µM, first compound 0.001 µM
  viability, T/C: 67.5%
Second compound 0.01 µM, first compound 0.00316 µM
  viability, T/C: 80.7%
Second compound 0.01 µM, first compound 0.01 µM
  viability, T/C: 72.8%
[3]
  viability, T/C: 55.6%
[4]
  viability, T/C: 36.2%
Second compound 0.0316 µM, first compound 0.000316 µM
  viability, T/C: 49.3%
Second compound 0.0316 µM, first compound 0.001 µM
  viability, T/C: 60.8%
Second compound 0.0316 µM, first compound 0.00316 µM
  viability, T/C: 52%
Second compound 0.0316 µM, first compound 0.01 µM
  viability, T/C: 52.1%
[5]
  viability, T/C: 44.2%
[6]
  viability, T/C: 24.4%
Second compound 0.1 µM, first compound 0.000316 µM
  viability, T/C: 33.4%
Second compound 0.1 µM, first compound 0.001 µM
  viability, T/C: 35.1%
Second compound 0.1 µM, first compound 0.00316 µM
  viability, T/C: 34.8%
Second compound 0.1 µM, first compound 0.01 µM
  viability, T/C: 30.9%
[7]
  viability, T/C: 19%
[8]
  viability, T/C: 11.8%
Second compound 0.316 µM, first compound 0.000316 µM
  viability, T/C: 19.1%
Second compound 0.316 µM, first compound 0.001 µM
  viability, T/C: 16%
Second compound 0.316 µM, first compound 0.00316 µM
  viability, T/C: 13.6%
Second compound 0.316 µM, first compound 0.01 µM
  viability, T/C: 9.81%
[9]
  viability, T/C: 8.53%
[10]
  viability, T/C: 6.35%
Second compound 1 µM, first compound 0.000316 µM
  viability, T/C: 4.84%
Second compound 1 µM, first compound 0.001 µM
  viability, T/C: 4.33%
Second compound 1 µM, first compound 0.00316 µM
  viability, T/C: 3.36%
Second compound 1 µM, first compound 0.01 µM
  viability, T/C: 2.93%
[11]
  viability, T/C: 1.98%
[12]
  viability, T/C: 2.41%

From PubChem BioAssay AID1963985 (Molecular Pharmacology Branch, DTP, NCI, 2024)
